Assay results taken from US20240026461A1, “BCL10 MUTATIONS AS BIOMARKERS FOR TARGETED THERAPY IN B CELL LYMPHOMAS” (priority 2022, published 2024).

Assays:
OCI-LY10^WT = assay: Growth inhibition assay (CellTiter Glo), OCI-Ly10 cells expressing BCL10 WT; format: cell-based; details: Homo sapiens, 96 h, read-out: IC50, growth inhibition, MALT1 inhibitors
Protocol: DLBCL cell lines were cultured in exponential condition and the cell growth was determined by CellTiter Glo (Promega). 3000-5000 cells were seeded and cultured in each well of 384 well plate for 96 h and treated with compounds every 48 h. Luminescence was read at the endpoint with the Synergy NEO microplate reader (BioTek). The value of compound treated cells was normalized to their vehicle treated controls and then used to calculate IC50 in GraphPad Prism (RRID:SCR_002798).
Given the distinct functional profiles, CARD11 dependencies, and MALT1 activation effects of the BCL10 CARD and truncation mutants, the inventors designed experiments to evaluate whether, and to what extent, these mutant BCL10 proteins might confer BTK inhibitor resistance. Isogenic ABC-DLBCL cells expressing BCL10WT, BCL10^R58Q and BCL10^E140X proteins were treated with escalating doses of three chemically distinct covalent BTK inhibitors: ibrutinib, acalabrutinib, or zanubrutinib. The cellular proliferation rates of the treated cells were measured using an ATP fluorescence assay after 96 hours of drug exposure.
Isogenic BCL10^WT, BCL10^R58Q and BCL10^E140X ABC-DLBCLs were exposed to increasing concentrations of each of these compounds for 96 hours.

[1] = test system: BCL10^E140X ABC-DLBCL xenografts; assay: Xenograft, JNJ-67690246 treatment, BCL10^E140X tumors; format: in vivo, mice; details: OCI-Ly10 cell line, p.o. 100 mg/kg twice per day
Description: FIG. 7A-7K illustrate that subjects with BCL10 truncating mutant lymphomas are hypersensitive to MALT1 protease inhibitors. FIG. 7A graphically illustrates growth inhibition of human diffuse large B-cell lymphoma (HBL1) cells and OCI-Ly10 lymphoma cells expressing wild type or mutant BCL10 proteins in response to MALT1 inhibitor C3. X axis, concentration of compound (M); Y axis, inhibition of cell growth normalized to vehicle treated cells. **p<0.01; ***p<0.001; ****p<0.0001; ns, not significant. […] FIG. 7D graphically illustrates luciferase activity measured in the MALT1 GloSensor reporter cell lines treated with MALT1 inhibitor C3. […] FIG. 7E graphically illustrates luciferase activity measured in the MALT1 GloSensor reporter cell lines treated with MALT1 inhibitor MLT-748. […] FIG. 7F graphically illustrates luciferase activity measured in the MALT1 GloSensor reporter cell lines treated with MALT1 inhibitor JNJ-67690246. […] AUC was calculated with Prism. *p<0.05. FIG. 7J graphically illustrates tumor weight measured at the endpoint of the studies described in FIG. 7G-7I. *p<0.05.
All mice experiments were approved by Institutional Animal Care & Use Committee (IACUC) at Weill Cornell Medicine and were performed following the IACUC guidelines. […] Tumor volume was monitored 2˜3 times/week with digital caliper and calculated using the following formula. smallest diameter^2×largest diameter×0.5. […]

Cc1nc(-n2nccn2)c(Cl)cc1NC(=O)c1cnn(-c2cccc3c(=O)[nH]ccc23)c1C(F)(F)F [JNJ-67690246]
IC50 (OCI-LY10^WT): 320 ± 70 nM
growth of lymphoma xenografts [1]: significant reduction in growth
